Measurements as given in publication PMC2806030, “Inhibition of mammalian S6 kinase by resveratrol suppresses autophagy” (Aging (Albany NY), 2009).

What was measured:
Assay in all cases: biochemical
Parameters in all cases: Upstate KinaseProfiler in vitro kinase activity assay, per cent of DMSO control
Conditions in all cases: read-out: Activity (% of Control)
JNK3(h) = molecular target: T1, JNK3(h) (Homo sapiens, UniProt P53779)
T1 construct: gene MAPK10
Protocol: (§1) Kinase profile and kinase assay. A Kinase profile against 100 kinases listed for resveratrol at 20 μM was generated utilizing Upstate's KinaseProfiler™ service. Assay protocols for each kinase are available from Upstate (Lake Placid, NY). In vitro kinase assay was performed as described previously. Briefly, HEK293 cells were transfected with HA-S6K1 wt, HA-S6K1 K100R, or vector as indicated. Cells were treated with 1 μg/ml insulin for 10 minutes prior to harvesting in PBS + 0.5% NP-40 + protease and phosphatase inhibitors. 125 μg of lysate per sample was immunoprecipitated using 0.5 μg/sample of anti-HA High-Affinity (Roche, Basel Switzerland). Beads from immunoprecipitations were washed three times in lysis buffer and once in kinase buffer, and kinase assays were performed with recombinant GST-S6 as substrate (1 μg per assay). In the indicated lanes varying doses of resveratrol or DMSO control were added to the reaction prior to addition of the GST-S6 substrate. All samples were subjected to SDS-PAGE, and 32P incorporation was quantified by using a Bio-Rad (Hercules, CA) Phosphor-Imager and subsequent analysis with ImageJ (NIH).  Figure 4. Resveratrol inhibits S6K1 in vitro. (A) Structural similarity between resveratrol and quercetin, a known kinase inhibitor. (B) Kinase inhibition profile for resveratrol at 20 μM obtained using KinaseProfiler™ (Upstate). Dashed line represents 100% activity as compared to control. Black filled-in bar on the graph indicates S6K1. Complete data set is provided in Supplementary Table 1. Error bars represent s.d.m. (C) Phosphorylation of recombinant GST-tagged S6 by immunoprecipitated HA-S6K1 under increasing concentrations of resveratrol (Res). Autoradiograph depicts S6K1 phosphorylation of GST-S6. (D) Average of three separate kinase assay experiments as performed in (C). Densitometry was performed using NIH ImageJ. Error bars represent s.e.m. […] Therefore, we hypothesized that the effect of resveratrol on autophagy could be related to inhibition of one or more upstream kinases. To test this, we performed an in vitro kinase screen and determined an inhibition profile for resveratrol. […] With the exception of S6K1, these kinases play primary roles in the hematopoietic system, and were thus viewed as unlikely to have been responsible for the effect we were studying. […] On the other hand, S6K1 is known to play a requisite role in the regulation of autophagy in Drosophila, making it a promising candidate for the in vivo target of resveratrol that is responsible for inhibition of autophagy.

p70S6K(h) = molecular target: T2, p70S6K(h) (Homo sapiens, UniProt P23443)
T2 construct: gene RPS6KB1
Protocol: as §1

CDK1/cyclinB(h) = CDK1/cyclinB(h) (Homo sapiens, UniProt P06493)
Protocol: as §1

Pim-2 = molecular target: T3, Pim-2 (Homo sapiens, UniProt Q9P1W9)
T3 construct: gene PIM2
Protocol: as §1

Rsk2(h) = molecular target: T4, Rsk2(h) (Homo sapiens, UniProt P51812)
T4 construct: gene RPS6KA3
Protocol: as §1

ZAP-70(h) = molecular target: T5, ZAP-70(h) (Homo sapiens, UniProt P43403)
T5 construct: gene ZAP70
Protocol: as §1

TAK1(h) = molecular target: T6, TAK1(h) (Homo sapiens, UniProt O43318)
T6 construct: gene MAP3K7
Protocol: as §1

Met(h) = Met(h) (Homo sapiens, UniProt P08581)
Sequence of Met(h) (P08581 whole entry): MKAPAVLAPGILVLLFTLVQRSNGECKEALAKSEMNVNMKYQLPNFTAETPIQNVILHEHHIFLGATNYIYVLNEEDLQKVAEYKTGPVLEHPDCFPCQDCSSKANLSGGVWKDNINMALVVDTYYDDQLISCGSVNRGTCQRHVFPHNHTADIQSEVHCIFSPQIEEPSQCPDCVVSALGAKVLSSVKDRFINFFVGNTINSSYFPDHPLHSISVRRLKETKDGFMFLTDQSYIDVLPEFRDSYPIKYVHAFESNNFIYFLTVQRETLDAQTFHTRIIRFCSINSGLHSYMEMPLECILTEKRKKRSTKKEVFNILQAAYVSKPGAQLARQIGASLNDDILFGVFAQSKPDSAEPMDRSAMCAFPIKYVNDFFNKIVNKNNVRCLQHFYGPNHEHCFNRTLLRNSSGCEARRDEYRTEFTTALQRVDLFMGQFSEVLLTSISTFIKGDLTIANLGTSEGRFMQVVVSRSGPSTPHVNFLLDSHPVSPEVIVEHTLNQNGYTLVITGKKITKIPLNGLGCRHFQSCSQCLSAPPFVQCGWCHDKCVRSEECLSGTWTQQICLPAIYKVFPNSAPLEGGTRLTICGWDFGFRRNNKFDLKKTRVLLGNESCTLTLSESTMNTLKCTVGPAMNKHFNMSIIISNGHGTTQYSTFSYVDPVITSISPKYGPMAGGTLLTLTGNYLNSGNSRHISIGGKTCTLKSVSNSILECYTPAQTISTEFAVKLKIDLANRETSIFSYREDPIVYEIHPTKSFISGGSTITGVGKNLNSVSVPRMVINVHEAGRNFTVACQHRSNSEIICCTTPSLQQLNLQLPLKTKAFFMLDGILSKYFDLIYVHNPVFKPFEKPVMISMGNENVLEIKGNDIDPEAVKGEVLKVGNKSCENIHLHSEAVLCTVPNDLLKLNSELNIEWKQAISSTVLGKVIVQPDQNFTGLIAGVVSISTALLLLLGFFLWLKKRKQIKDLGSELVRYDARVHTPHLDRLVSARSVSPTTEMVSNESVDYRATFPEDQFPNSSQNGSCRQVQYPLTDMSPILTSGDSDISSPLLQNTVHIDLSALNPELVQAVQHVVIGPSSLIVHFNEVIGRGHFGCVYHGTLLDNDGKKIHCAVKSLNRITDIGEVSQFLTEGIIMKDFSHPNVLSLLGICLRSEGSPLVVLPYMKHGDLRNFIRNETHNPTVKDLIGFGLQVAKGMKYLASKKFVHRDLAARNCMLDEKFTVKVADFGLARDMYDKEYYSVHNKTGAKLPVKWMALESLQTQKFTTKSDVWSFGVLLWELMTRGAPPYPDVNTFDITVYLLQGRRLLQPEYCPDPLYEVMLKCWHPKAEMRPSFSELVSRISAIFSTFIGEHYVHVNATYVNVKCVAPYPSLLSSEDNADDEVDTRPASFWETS
Protocol: as §1

Abl(h) = molecular target: T7, Abl(h) (Homo sapiens, UniProt P00519)
T7 construct: gene ABL1
T7 sequence (P00519 whole entry): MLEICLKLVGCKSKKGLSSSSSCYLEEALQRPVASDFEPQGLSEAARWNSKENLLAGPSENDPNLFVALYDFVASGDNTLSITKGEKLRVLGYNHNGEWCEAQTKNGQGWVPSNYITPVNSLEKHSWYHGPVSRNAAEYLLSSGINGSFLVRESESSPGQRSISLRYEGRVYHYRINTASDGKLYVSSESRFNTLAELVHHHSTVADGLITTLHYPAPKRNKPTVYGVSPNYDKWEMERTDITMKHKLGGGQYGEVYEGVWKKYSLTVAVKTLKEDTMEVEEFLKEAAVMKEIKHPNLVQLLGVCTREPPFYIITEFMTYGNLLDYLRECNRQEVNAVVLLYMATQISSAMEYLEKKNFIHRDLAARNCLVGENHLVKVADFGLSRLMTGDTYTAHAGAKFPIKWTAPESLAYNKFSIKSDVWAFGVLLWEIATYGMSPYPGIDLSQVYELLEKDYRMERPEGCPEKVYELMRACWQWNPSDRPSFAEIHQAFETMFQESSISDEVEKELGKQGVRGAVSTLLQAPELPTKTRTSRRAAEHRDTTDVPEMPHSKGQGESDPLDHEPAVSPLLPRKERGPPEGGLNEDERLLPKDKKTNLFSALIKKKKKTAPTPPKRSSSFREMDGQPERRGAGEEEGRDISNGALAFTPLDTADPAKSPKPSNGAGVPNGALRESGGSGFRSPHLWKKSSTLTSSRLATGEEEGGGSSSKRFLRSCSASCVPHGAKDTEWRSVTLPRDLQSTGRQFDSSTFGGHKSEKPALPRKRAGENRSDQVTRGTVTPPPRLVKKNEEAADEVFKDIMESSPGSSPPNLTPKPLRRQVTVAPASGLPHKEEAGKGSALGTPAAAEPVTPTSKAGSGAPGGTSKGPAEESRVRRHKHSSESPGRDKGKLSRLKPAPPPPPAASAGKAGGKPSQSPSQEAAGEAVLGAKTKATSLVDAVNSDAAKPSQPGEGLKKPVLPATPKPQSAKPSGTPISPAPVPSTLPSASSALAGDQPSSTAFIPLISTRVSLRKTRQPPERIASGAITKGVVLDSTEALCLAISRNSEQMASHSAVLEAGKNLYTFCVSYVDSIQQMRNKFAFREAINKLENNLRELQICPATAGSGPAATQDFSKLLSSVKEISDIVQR
Protocol: as §1

CDK5/p25(h) = molecular target: T8, CDK5/p25(h) (Homo sapiens, UniProt Q00535)
T8 construct: p25
Protocol: as §1

NEK3(h) = NEK3(h) (Homo sapiens, UniProt P51956)
Sequence of NEK3(h) (P51956 whole entry): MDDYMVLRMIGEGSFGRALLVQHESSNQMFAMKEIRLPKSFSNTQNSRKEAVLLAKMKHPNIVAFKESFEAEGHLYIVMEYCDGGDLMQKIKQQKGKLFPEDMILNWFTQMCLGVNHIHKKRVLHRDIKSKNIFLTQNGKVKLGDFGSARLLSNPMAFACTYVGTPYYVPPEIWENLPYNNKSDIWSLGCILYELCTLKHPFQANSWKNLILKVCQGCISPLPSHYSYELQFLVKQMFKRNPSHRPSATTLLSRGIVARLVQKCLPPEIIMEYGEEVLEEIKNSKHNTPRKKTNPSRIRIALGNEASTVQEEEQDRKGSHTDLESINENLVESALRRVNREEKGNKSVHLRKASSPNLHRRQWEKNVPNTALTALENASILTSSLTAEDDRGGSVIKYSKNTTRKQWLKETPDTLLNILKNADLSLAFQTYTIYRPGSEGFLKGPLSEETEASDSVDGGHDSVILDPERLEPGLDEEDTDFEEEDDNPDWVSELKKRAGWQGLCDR
Protocol: as §1

IGF-1R(h) = molecular target: T9, IGF-1R(h) (Homo sapiens, UniProt P08069)
T9 construct: gene IGF1R
T9 sequence (P08069 whole entry): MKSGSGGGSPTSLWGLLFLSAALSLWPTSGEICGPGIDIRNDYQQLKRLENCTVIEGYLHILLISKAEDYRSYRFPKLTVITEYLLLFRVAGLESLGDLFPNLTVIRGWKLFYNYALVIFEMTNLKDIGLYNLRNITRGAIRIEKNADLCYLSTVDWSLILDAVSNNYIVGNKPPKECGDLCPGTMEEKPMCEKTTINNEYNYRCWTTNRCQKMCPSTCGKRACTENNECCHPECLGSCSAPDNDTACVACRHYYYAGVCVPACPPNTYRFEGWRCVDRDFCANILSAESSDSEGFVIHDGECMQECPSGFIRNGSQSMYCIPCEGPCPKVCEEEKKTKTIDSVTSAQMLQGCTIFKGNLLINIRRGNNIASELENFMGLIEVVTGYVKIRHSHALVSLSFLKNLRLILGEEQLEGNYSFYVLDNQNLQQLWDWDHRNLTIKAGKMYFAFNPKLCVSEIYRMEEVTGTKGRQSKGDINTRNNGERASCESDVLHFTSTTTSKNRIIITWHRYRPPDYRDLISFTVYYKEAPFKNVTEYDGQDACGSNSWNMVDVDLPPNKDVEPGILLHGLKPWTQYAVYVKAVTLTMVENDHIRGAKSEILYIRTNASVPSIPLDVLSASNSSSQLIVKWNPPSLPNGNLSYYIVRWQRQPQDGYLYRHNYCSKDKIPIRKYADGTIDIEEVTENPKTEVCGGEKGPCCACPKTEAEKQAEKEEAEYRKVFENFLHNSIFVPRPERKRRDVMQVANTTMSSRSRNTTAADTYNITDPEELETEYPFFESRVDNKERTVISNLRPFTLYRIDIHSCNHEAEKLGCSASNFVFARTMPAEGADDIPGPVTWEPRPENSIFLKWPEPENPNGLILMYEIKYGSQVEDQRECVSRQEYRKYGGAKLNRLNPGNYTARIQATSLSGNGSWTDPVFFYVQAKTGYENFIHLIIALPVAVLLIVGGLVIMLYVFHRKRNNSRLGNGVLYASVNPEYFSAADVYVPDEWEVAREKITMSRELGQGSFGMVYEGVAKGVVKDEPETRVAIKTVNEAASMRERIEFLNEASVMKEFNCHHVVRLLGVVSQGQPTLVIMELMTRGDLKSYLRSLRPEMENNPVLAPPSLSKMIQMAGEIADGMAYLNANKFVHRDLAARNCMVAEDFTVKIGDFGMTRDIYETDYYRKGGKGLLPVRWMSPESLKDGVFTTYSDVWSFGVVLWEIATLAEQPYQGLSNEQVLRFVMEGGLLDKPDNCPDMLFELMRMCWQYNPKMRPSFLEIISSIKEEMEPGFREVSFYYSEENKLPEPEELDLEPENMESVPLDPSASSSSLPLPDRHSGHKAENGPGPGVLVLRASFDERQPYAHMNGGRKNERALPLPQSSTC
Protocol: as §1

CDK3/cyclinE(h) = CDK3/cyclinE(h) (Homo sapiens, UniProt Q00526)
Protocol: as §1

PKCα(h) = molecular target: T10, PKCα(h) (Homo sapiens, UniProt P17252)
T10 construct: gene PRKCA
Protocol: as §1

Aurora-A(h) = molecular target: T11, Aurora-A(h) (Homo sapiens, UniProt O14965)
T11 construct: gene AURKA
T11 sequence (O14965 whole entry): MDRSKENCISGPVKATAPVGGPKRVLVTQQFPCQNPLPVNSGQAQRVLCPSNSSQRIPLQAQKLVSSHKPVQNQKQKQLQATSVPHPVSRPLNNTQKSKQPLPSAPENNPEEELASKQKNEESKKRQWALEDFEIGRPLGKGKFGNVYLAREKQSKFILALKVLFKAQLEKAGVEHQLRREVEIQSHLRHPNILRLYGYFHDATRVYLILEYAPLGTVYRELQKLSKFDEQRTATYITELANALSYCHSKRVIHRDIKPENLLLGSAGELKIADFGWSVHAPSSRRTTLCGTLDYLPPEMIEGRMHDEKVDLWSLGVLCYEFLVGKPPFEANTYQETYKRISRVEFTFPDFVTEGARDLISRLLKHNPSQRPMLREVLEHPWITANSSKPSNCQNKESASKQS
Protocol: as §1

PKBß(h) = molecular target: T12, PKBß(h) (Homo sapiens, UniProt P31751)
T12 construct: gene AKT2
Protocol: as §1

PAK2(h) = PAK2(h) (Homo sapiens, UniProt Q13177)
Protocol: as §1

PAK6(h) = PAK6(h) (Homo sapiens, UniProt Q9NQU5)
Protocol: as §1

Oc1ccc(/C=C/c2cc(O)cc(O)c2)cc1 [Res, resveratrol]
remaining activity at 20 µM (JNK3(h)): 98 ± 3% | remaining activity at 20 µM (p70S6K(h)): 21 ± 1% | remaining activity at 20 µM (CDK1/cyclinB(h)): 67 ± 3% | remaining activity at 20 µM (Pim-2): 14 ± 2% | remaining activity at 20 µM (Rsk2(h)): 32% | remaining activity at 20 µM (ZAP-70(h)): 141 ± 2% | remaining activity at 20 µM (TAK1(h)): 105 ± 3% | remaining activity at 20 µM (Met(h)): 114 ± 5% | remaining activity at 20 µM (Abl(h)): 105 ± 7% | remaining activity at 20 µM (CDK5/p25(h)): 64 ± 4% | remaining activity at 20 µM (NEK3(h)): 96 ± 8% | remaining activity at 20 µM (IGF-1R(h)): 75% | remaining activity at 20 µM (CDK3/cyclinE(h)): 75 ± 4% | remaining activity at 20 µM (PKCα(h)): 114 ± 9% | remaining activity at 20 µM (Aurora-A(h)): 65 ± 1% | remaining activity at 20 µM (PKBß(h)): 105 ± 3% | remaining activity at 20 µM (PAK2(h)): 98 ± 4% | remaining activity at 20 µM (PAK6(h)): 103 ± 3%
